ChEMBL document CHEMBL4699467, “Progress towards a stable cephalosporin-halogenated phenazine conjugate for antibacterial prodrug applications” (Bioorg Med Chem Lett, 2020)
Values after ≈ are worked out from the molar mass of the structure shown.

Legend:
Staphylococcus aureus = experiment: Antibacterial activity against methicillin-resistant Staphylococcus aureus BAA-1707 assessed as inhibition of bacterial growth incubated for 16 to 18 hrs by CLSI protocol based two fold serial dilution method; format: functional; settings: time hrs 16-18
[1] = Stability of the compound in methicillin-resistant Staphylococcus aureus BAA-1707 for 16 to 18 hrs; format: ADME; settings: time 16-18 hrs

| SMILES | MIC (Staphylococcus aureus) [µM] | Stabilty [1] |
| --- | --- | --- |
| O=C(Cc1cccs1)N[C@@H]1C(=O)N2C(C(=O)OC(c3ccccc3)c3ccccc3)=C(COC(=O)Oc3c(Br)cc(Br)c4nc5ccccc5nc34)CS[C@H]12 | > 100 | Stable |
| Oc1c(Br)cc(Br)c2nc3ccccc3nc12 | 1 (≈ 0.354 µg/mL) | – |
